From patent publication US20170073337A1, “DIHYDROTHIAZINE AND DIHYDROOXAZINE DERIVATIVES HAVING BACE1 INHIBITORY ACTIVITY” (Shionogi & Co., Ltd., priority 2014, published 2017)
In brackets after ≈: the same amount, converted by molar mass. Like-named read-outs stand apart in the source and are kept apart here.

What was measured:
CYP1A2 = biological target: T1, CYP1A2 (Homo sapiens, UniProt P05177); experiment: CYP inhibition test (CYP1A2); type: in vitro ADME; conditions: pooled human liver microsomes; 7-ethoxyresorufin O-deethylation
T1 construct: The commercially available pooled human liver microsomes are used as an enzyme resource; from tissue; host or cells: pooled human liver microsomes
T1 sequence (P05177 1-516): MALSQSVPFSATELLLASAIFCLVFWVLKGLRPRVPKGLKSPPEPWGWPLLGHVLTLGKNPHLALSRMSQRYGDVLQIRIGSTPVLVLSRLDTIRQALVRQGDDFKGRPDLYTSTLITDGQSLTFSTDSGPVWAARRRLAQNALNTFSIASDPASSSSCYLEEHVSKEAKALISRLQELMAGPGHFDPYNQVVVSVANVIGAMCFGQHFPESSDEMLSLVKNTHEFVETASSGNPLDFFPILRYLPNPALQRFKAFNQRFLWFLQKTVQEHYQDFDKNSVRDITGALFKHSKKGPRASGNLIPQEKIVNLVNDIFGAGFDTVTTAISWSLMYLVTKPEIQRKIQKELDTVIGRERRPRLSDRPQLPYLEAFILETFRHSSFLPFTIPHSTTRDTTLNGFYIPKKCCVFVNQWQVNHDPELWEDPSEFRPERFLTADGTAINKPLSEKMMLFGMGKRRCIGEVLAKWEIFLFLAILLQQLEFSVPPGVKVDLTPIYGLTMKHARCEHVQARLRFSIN
Summary of the method: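 Inhibition of CYP1A2 was measured in commercially available pooled human liver microsomes (0.2 mg protein/mL) using 7-ethoxyresorufin O-deethylation with 0.5 μmol/L ethoxyresorufin. Test compound at 1, 5, 10, 20 μmol/L in […] Hepes buffer was incubated at 37° C. after NADPH addition; methanol/acetonitrile=1/1 (v/v) stopped the reaction, and resorufin was read fluorescently.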

Metabolic stability test = type: in vitro ADME; conditions: human liver microsomes, 37° C., 30 minutes, NADPH
Summary of the method: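 Parent compound was measured by LC/MS/MS or SPE/MS after a methanol/acetonitrile quench and reported as % remaining, with the 0 min sample set to 100%. Incubations ran 30 min at 37 °C in pH 7.4 Tris buffer containing pooled human liver microsomes at 0.5 mg protein/mL and 1 mmol/L NADPH.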

[1] = biological target: T2, human ether-a-go-go related gene (hERG) channel (Homo sapiens, UniProt Q12809); experiment: hERG test; type: cell-based; conditions: % inhibition of IKr tail peak current at 3 uM; CHO cells expressing hERG
T2 construct: expressed in transfected cells; host or cells: CHO cells
Summary of the method: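 IKr was recorded from hERG-expressing CHO cells by automated whole-cell patch clamp at a holding potential of −80 mV. A −50 mV leak step was followed by a 2 s depolarization to +20 mV and a 2 s repolarization to −50 mV, when current was measured.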

CYP2C19 = biological target: T3, CYP2C19 (Homo sapiens, UniProt P33261); experiment: CYP inhibition test (CYP2C19); type: in vitro ADME; conditions: pooled human liver microsomes; mephenytoin 4′-hydroxylation
T3 construct: The commercially available pooled human liver microsomes are used as an enzyme resource; from tissue; host or cells: pooled human liver microsomes
Summary of the method: (§1)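 Pooled human liver microsomes (0.2 mg protein/mL) were incubated at 37 °C with NADPH, compound at 1, 5, 10, 20 μmol/L and marker substrates: tolbutamide 100 μmol/L (2C9), S-mephenytoin 50 μmol/L (2C19), dextromethorphan 5 μmol/L (2D6), terfenadine 1 μmol/L (3A4). Metabolites were measured by LC/MS/MS; IC50 came from logistic fitting against DMSO control.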

Solubility test = type: physicochemical
Summary of the method: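 Dissolved concentration determined by LC/MS or SPE/MS (absolute calibration) in diluted filtrates, after 2 μL of 10 mmol/L DMSO stock was added to 198 μL JP 1st or JP 2nd fluid and equilibrated either 1 h with shaking at room temperature or 16 h standing at 25 °C.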

CYP3A4 = biological target: T4, CYP3A4 (Homo sapiens, UniProt P08684); experiment: CYP inhibition test (CYP3A4); type: in vitro ADME; conditions: pooled human liver microsomes; terfenadine hydroxylation
T4 construct: The commercially available pooled human liver microsomes are used as an enzyme resource; from tissue; host or cells: pooled human liver microsomes
Summary of the method: as §1

[2] = JP 1st fluid, pH 1.2, simulated gastric fluid, kinetic from dmso stock, read-out: JP1
[3] = solubility in JP 2nd fluid B, 1% DMSO, *2: shaken for 1 hour at room temperature, read-out: JP2_μM
[4] = JP 1st fluid, 25 °C, pH 1.2, simulated gastric fluid, kinetic from dmso stock, read-out: JP1
[5] = JP 2nd fluid A, 25 °C, pH 6.8, aqueous buffer, kinetic from dmso stock, read-out: JP2_μM
[6] = JP 2nd fluid A, pH 6.8, aqueous buffer, kinetic from dmso stock, read-out: JP2_μM

T4 sequence (P08684 whole entry): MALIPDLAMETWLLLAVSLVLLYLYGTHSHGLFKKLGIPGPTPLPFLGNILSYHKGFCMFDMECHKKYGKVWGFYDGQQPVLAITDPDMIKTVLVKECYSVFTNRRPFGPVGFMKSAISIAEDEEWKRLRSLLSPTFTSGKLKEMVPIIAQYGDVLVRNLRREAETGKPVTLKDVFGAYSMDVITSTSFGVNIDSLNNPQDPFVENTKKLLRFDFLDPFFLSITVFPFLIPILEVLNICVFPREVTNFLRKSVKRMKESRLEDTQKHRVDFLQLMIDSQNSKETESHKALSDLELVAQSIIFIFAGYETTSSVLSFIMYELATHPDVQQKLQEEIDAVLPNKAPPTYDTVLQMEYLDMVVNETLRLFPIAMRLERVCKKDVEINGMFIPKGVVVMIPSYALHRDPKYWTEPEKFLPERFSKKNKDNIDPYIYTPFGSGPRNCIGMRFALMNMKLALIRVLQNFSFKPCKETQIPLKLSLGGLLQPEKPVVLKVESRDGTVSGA
T2 sequence (Q12809 whole entry): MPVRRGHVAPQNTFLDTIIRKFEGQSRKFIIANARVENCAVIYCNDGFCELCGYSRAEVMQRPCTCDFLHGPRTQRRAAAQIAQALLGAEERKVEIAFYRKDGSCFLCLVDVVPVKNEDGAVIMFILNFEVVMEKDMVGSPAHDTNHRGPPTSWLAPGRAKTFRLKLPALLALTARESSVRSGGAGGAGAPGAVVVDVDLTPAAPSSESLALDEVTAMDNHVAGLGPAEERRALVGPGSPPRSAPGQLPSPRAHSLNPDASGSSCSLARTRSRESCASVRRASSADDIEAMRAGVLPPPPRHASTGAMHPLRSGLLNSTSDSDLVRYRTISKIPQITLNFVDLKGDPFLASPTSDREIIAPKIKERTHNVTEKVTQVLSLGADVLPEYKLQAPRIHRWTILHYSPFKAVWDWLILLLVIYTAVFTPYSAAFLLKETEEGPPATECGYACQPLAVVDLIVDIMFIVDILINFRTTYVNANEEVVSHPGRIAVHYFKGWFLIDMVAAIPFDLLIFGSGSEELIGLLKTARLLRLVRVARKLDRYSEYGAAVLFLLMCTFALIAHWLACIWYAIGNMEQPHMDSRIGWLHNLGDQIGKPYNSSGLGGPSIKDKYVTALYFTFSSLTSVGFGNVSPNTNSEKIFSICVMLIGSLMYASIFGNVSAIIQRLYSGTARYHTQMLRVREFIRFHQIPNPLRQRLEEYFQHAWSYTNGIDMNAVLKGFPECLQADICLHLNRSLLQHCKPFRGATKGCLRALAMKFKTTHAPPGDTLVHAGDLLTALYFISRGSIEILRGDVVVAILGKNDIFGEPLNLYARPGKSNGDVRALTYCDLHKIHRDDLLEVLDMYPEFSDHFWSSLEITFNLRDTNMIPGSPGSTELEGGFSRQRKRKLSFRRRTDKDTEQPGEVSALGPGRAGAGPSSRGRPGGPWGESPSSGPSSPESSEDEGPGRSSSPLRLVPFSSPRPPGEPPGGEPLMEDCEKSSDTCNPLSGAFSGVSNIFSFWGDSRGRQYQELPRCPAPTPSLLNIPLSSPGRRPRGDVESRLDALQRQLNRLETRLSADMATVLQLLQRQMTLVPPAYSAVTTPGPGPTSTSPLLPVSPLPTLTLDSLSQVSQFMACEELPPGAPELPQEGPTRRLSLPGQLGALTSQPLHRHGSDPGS
T3 sequence (P33261 whole entry): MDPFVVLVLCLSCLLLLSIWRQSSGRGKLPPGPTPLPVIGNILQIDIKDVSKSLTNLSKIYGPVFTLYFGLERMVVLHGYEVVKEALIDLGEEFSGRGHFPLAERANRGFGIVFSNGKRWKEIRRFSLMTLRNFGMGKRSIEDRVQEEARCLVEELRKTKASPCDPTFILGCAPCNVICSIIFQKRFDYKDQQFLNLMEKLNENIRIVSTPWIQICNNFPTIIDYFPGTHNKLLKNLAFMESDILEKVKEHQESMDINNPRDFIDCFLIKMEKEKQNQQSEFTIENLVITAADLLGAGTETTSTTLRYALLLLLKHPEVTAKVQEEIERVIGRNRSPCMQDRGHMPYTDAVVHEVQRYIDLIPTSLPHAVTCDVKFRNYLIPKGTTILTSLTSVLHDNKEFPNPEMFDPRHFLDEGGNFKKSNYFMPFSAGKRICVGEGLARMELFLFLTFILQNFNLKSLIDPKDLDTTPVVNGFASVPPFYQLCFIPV

CO[C@H]1[C@@H](C)SC(N)=N[C@]1(C)c1cc(NC(=O)c2cnc(OCF)cn2)ccc1F [Compound I-87]
IC50 (CYP1A2): ≥ 20 µM
remaining % (Metabolic stability test): 81%
hERG_3 uM_% [1]: 13.8%
IC50 (CYP2C19): ≥ 20 µM
solubility kinetic at 1 h (Solubility test; [2]): > 50 µM
solubility kinetic at 16 h (Solubility test; [3]): >50 µM
IC50 (CYP3A4): ≥ 20 µM

CO[C@H]1[C@@H](CF)OC(N)=N[C@]1(C)c1cc(NC(=O)c2ccc(F)cn2)ccc1Cl [Compound I-20]
IC50 (CYP1A2): ≥ 20 µM
remaining % (Metabolic stability test): 75.4%
hERG_3 uM_% [1]: 30.4%
IC50 (CYP2C19): ≥ 20 µM
solubility kinetic at 16 h (Solubility test; [4]): 38.9 µM (≈ 16.5 µg/mL)
solubility kinetic at 16 h (Solubility test; [5]): > 50 µM
IC50 (CYP3A4): ≥ 20 µM

C[C@]1(c2cc(NC(=O)c3ccc(F)cn3)ccc2F)N=C(N)OCC12CC(F)(F)C2 [Compound I-45]
IC50 (CYP1A2): ≥ 20 µM
remaining % (Metabolic stability test): 93.5%
hERG_3 uM_% [1]: 51.6%
IC50 (CYP2C19): ≥ 20 µM
solubility kinetic at 16 h (Solubility test; [4]): 35.8 µM (≈ 15.1 µg/mL)
solubility kinetic at 16 h (Solubility test; [5]): > 50 µM
IC50 (CYP3A4): ≥ 20 µM

CC[C@H]1SC(N)=N[C@](C)(c2cc(NC(=O)c3ccc(F)cn3)ccc2F)[C@H]1F [Compound I-70]
IC50 (CYP1A2): ≥ 20 µM
remaining % (Metabolic stability test): 74.3%
hERG_3 uM_% [1]: 58.6%
IC50 (CYP2C19): ≥ 20 µM
solubility kinetic at 1 h (Solubility test; [2]): > 50 µM
solubility kinetic at 16 h (Solubility test; [3]): >50 µM
IC50 (CYP3A4): ≥ 10 µM

CO[C@H]1[C@@H](C)SC(N)=N[C@]1(C)c1cc(NC(=O)c2ccc(F)cn2)ccc1F [Compound I-89]
IC50 (CYP1A2): ≥ 20 µM
remaining % (Metabolic stability test): 86.7%
hERG_3 uM_% [1]: 42.7%
IC50 (CYP2C19): ≥ 20 µM
solubility kinetic at 1 h (Solubility test; [2]): > 50 µM
solubility kinetic at 16 h (Solubility test; [3]): >50 µM
IC50 (CYP3A4): ≥ 20 µM

C[C@H]1SC(N)=N[C@](C)(c2cc(NC(=O)c3coc(CF)n3)ccc2F)[C@H]1F [Compound I-49]
IC50 (CYP1A2): ≥ 20 µM
remaining % (Metabolic stability test): 95.4%
hERG_3 uM_% [1]: 27.2%
IC50 (CYP2C19): ≥ 20 µM
solubility kinetic at 1 h (Solubility test; [2]): > 50 µM
solubility kinetic at 1 h (Solubility test; [6]): > 50 µM
IC50 (CYP3A4): ≥ 20 µM

C[C@]1(c2cc(NC(=O)c3cnc(OCF)cn3)ccc2F)N=C(N)OCC12CC(F)(F)C2 [Compound I-44]
IC50 (CYP1A2): ≥ 20 µM
remaining % (Metabolic stability test): 86.4%
hERG_3 uM_% [1]: 28.9%
IC50 (CYP2C19): ≥ 20 µM
solubility kinetic at 16 h (Solubility test; [4]): 34 µM (≈ 15.4 µg/mL)
solubility kinetic at 16 h (Solubility test; [5]): > 50 µM
IC50 (CYP3A4): ≥ 20 µM

COc1cnc(C(=O)Nc2ccc(F)c([C@@]3(C)N=C(N)O[C@H](C(C)(F)F)[C@@H]3F)c2)cn1 [Compound I-42]
IC50 (CYP1A2): ≥ 20 µM
remaining % (Metabolic stability test): 68.2%
hERG_3 uM_% [1]: 15.5%
IC50 (CYP2C19): ≥ 20 µM
solubility kinetic at 1 h (Solubility test; [2]): > 50 µM
solubility kinetic at 1 h (Solubility test; [6]): > 50 µM
IC50 (CYP3A4): ≥ 20 µM

COc1cnc(C(=O)Nc2ccc(F)c([C@@]3(C)N=C(N)O[C@H](C(F)F)[C@@H]3C)c2)cn1 [Compound I-86]
IC50 (CYP1A2): ≥ 20 µM
remaining % (Metabolic stability test): 67.5%
hERG_3 uM_% [1]: 23.8%
IC50 (CYP2C19): ≥ 20 µM
solubility kinetic at 1 h (Solubility test; [2]): > 50 µM
solubility kinetic at 1 h (Solubility test; [6]): > 50 µM
IC50 (CYP3A4): ≥ 20 µM

C[C@H]1SC(N)=N[C@](C)(c2nc(NC(=O)c3cnc(OCF)cn3)ccc2F)[C@H]1F [Compound I-3]
IC50 (CYP1A2): ≥ 20 µM
remaining % (Metabolic stability test): 81.4%
hERG_3 uM_% [1]: 45.5%
IC50 (CYP2C19): ≥ 20 µM
solubility kinetic at 16 h (Solubility test; [4]): > 50 µM
solubility kinetic at 16 h (Solubility test; [5]): > 50 µM
IC50 (CYP3A4): ≥ 20 µM

C[C@@H]1[C@@H](C(F)(F)F)OC(N)=N[C@]1(C)c1cc(NC(=O)c2ccc(C#N)cn2)ccc1F [Compound I-27]
IC50 (CYP1A2): ≥ 20 µM
remaining % (Metabolic stability test): 84.7%
hERG_3 uM_% [1]: 28.8%
IC50 (CYP2C19): ≥ 20 µM
solubility kinetic at 16 h (Solubility test; [4]): 39.7 µM (≈ 17.3 µg/mL)
solubility kinetic at 16 h (Solubility test; [5]): > 50 µM
IC50 (CYP3A4): ≥ 20 µM

CO[C@H]1[C@@H](CF)OC(N)=N[C@]1(C)c1cc(NC(=O)c2ccc(C#N)cn2)ccc1Cl [Compound I-18]
IC50 (CYP1A2): ≥ 20 µM
remaining % (Metabolic stability test): 71.4%
hERG_3 uM_% [1]: 44.8%
IC50 (CYP2C19): ≥ 20 µM
solubility kinetic at 16 h (Solubility test; [4]): 36 µM (≈ 15.5 µg/mL)
solubility kinetic at 16 h (Solubility test; [5]): > 50 µM
IC50 (CYP3A4): ≥ 20 µM

C[C@]1(c2cc(NC(=O)c3ccc(F)cn3)ccc2F)N=C(N)O[C@H](CF)[C@@H]1OCC(F)(F)F [Compound I-11]
IC50 (CYP1A2): ≥ 20 µM
remaining % (Metabolic stability test): 104%
hERG_3 uM_% [1]: 42.5%
IC50 (CYP2C19): ≥ 20 µM
solubility kinetic at 16 h (Solubility test; [4]): 42.7 µM (≈ 20.3 µg/mL)
solubility kinetic at 16 h (Solubility test; [5]): > 50 µM
IC50 (CYP3A4): ≥ 20 µM

C[C@H]1SC(N)=N[C@](C)(c2cc(NC(=O)c3ccc(OCF)cn3)ccc2F)[C@H]1F [Compound I-51]
IC50 (CYP1A2): ≥ 20 µM
remaining % (Metabolic stability test): 76.5%
hERG_3 uM_% [1]: 39.4%
IC50 (CYP2C19): ≥ 20 µM
solubility kinetic at 1 h (Solubility test; [2]): > 50 µM
solubility kinetic at 16 h (Solubility test; [3]): >50 µM
IC50 (CYP3A4): ≥ 10 µM

CC[C@H]1SC(N)=N[C@](C)(c2cc(NC(=O)c3cnc(OCF)cn3)ccc2F)[C@H]1F [Compound I-66]
IC50 (CYP1A2): ≥ 20 µM
remaining % (Metabolic stability test): 67%
hERG_3 uM_% [1]: 27.1%
IC50 (CYP2C19): ≥ 20 µM
solubility kinetic at 1 h (Solubility test; [2]): > 50 µM
solubility kinetic at 16 h (Solubility test; [3]): >50 µM
IC50 (CYP3A4): ≥ 10 µM

C[C@H]1[C@H](C(F)(F)F)OC(N)=N[C@]1(C)c1cc(NC(=O)c2ccc(C#N)cn2)ccc1F [Compound I-29]
IC50 (CYP1A2): ≥ 10 µM
remaining % (Metabolic stability test): 98.2%
hERG_3 uM_% [1]: 45.4%
IC50 (CYP2C19): ≥ 20 µM
solubility kinetic at 16 h (Solubility test; [4]): 35 µM (≈ 15.2 µg/mL)
solubility kinetic at 16 h (Solubility test; [5]): > 50 µM
IC50 (CYP3A4): ≥ 20 µM

CC(F)(F)[C@H]1OC(N)=N[C@](C)(c2cc(NC(=O)c3ccc(C#N)cn3)ccc2F)[C@H]1F [Compound I-40]
IC50 (CYP1A2): ≥ 20 µM
remaining % (Metabolic stability test): 106%
hERG_3 uM_% [1]: 48.4%
IC50 (CYP2C19): ≥ 20 µM
solubility kinetic at 1 h (Solubility test; [2]): > 50 µM
solubility kinetic at 1 h (Solubility test; [6]): > 50 µM
IC50 (CYP3A4): ≥ 20 µM
